According to patent publication US10039741B2, “Use of delta tocopherol for the treatment of lysosomal storage disorders” (The United States of America, as represented by the …, priority 2010, dated 2018):

How the values were obtained:
NPC cat model = conditions: cited from earlier work
NPC mouse model = conditions: cited from earlier work
NPCD fibroblasts = test: Lysotracker staining assay (lysosome size); format: cell-based, human; conditions: NPCD fibroblasts
Protocol: Lysotracker is fluorescent dye that stains acidic compartments in live cells and is well-retained after aldehyde fixation. We have optimized a lysotracker staining assay to visualize the enlarged lysosome size in the NPC skin fibroblasts by applying appropriate concentration of lysotracker dye in comparison with these normal fibroblast cells. Cells were seeded at 8000 cells/well in 100 μl medium in a black/clear bottom, tissue culture treated plate and cultured overnight or in a dedicated time. The cells were live-stained with 100 u/well 50 nM Lysotracker Red-99 dye (Invitrogen) dissolved medium at 37° C. for 1 hr followed by two-times plate wash with PBS buffer using the plate-inverted centrifugation method. The plate was then added with 100 μl/well 3.2% formaldehyde and 1 μg/ml Hoechst 33342 (Invitrogen) in PBS and incubated at room temperature for 30 minutes. After three times of plate wash with PBS buffer, samples were stored at 4° C. until imaging. Samples were photographed using an IN Cell Analyzer 1000 (GE Healthcare) with a 20× objective equipped with CCD camera. DAPI filter and TRITC filter were used to visualize Hoechst and Lysotracker red, respectively. The images were processed by Adobe Photoshop.

[1] = test system: NPC patient-derived skin fibroblasts; test: Amplex red cholesterol assay (free cholesterol); format: cell-based, human; conditions: NPCD fibroblasts
Excerpt: Free cholesterol accumulation in cells is a hallmark of NPC disease. The Amplex red cholesterol assay was used to screen an approved drug library in the NPC patient-derived skin fibroblasts that have free cholesterol accumulation in late endosome and lysosome. […] We then show δ-tocopherol in the filipin cholesterol staining assay, a method used clinically for NPCD diagnosis. […] Lysosome size is usually enlarged in the NPCD cells using a lysotracker staining assay.
The free cholesterol level in these cells was then measured by a cholesterol oxidase coupled HRP/amplex red detection method with a commercial available kit (Invitrogen). The cells were seeded to black, tissue culture-treated 1536-well plates (Greiner Bio-One, Monroe, N.C.) at 800 cells/well in 5 μl medium by a Multidrop Combi dispenser (Thermo Scientific, Waltham, Mass.) and cultured for 24 hours. The assay plates were added with 23 nl/well of compound DMSO solution using a pintool station (Kalypsys, San Diego, Calif.) and cultured for 3 days. The 1536-well assay plate was washed by a plate-inverted centrifugation method that removing medium by centrifuging plates upside down against a stack of paper towel at 1000 rpm for 1 min followed by addition of 7 μl/well PBS buffer, repeating for two times. The PBS buffer was added with a 45 degree angled dispenser (Kalypsys) or a Multi-Drop Combi dispenser set at medium speed to reduce disturbance to the cells. After the cell wash, 2.5 μl/well of detection mixture from the kit was added followed by 1 hour incubation at 37° C. With the addition of the detection mixture, the cells were lysed by the detergent containing buffer and free cholesterols in cell lysate were oxidized by cholesterol oxidase to produce H2O2 which reacting with amplex red dye in the presence of horseradish peroxidase to yield red fluorescence signal. A ViewLux plate reader (PerkinElmer, Boston, Mass.) was used to measure the fluorescent signal in assay plates with the excitation of 573 nm and emissions of 610 nm.

NPC fibroblasts = test: Lipid measurement by mass spectrometry (GC/MS); format: cell-based, human; conditions: 80 μM α-tocopherol or 40 uM δ-tocopherol for 5 days
Protocol: (§1) Effects of δ-tocopherol and α-tocopherols on (FIG. 4A) free cholesterol, (FIG. 4B) cholesterol ester and (FIG. 4C) sphingomyelin in NPC cells. NPC or WT cells were treated with DMSO, 80 μM α-tocopherol or 40 uM δ-tocopherol for 5 days. Cell pellets were collected and extracted for lipids. FC EC and sphingomyelin levels were measured by GC/MS. (FIG. 4D) Effects of δ-tocopherols and α-tocopherols on cholesterol efflux.
(§2) Cell pellets were collected from 100-mm dishes and washed once with 10 ml PBS. Proteins were assayed using the BCA kit (Sigma-Aldrich) and lipids were extracted by modified Bligh and Dyer procedure (29) from the cells. Internal standards were added based on protein concentration that included N12:0 sphingomyelin, D7-cholesterol, 17:0 cholesterol ester (Avanti Polar Lipids, Inc). A portion of the lipid extract was used for detection of sphingomyelins using direct infusion mass spectrometric assay with lithium hydroxide for facilitating ionization and the rest was used to convert cholesterol and its ester into acetate by derivatization. The derivatization was performed by treating the dried crude lipid extract with solutions of 1 M acetic acid with 1 M DMAP in chloroform and 1 M EDC in chloroform at 50° C. for 2 hours. The derivatized product was extracted with hexane and analyzed by direct infusion mass spectrometric assay with 5% ammonium hydroxide for facilitating ionization.
(§3) A triple-quadrupole mass spectrometer equipped with an electrospray was used for analysis of lipids in positive mode. Sphingomyelins, cholesterol and cholesterol esters were detected by neutral loss scan of 213 (collision energy: 50 V), neutral loss scan of 77 (collision energy: 14 V) and precursor ion scan of m/z 369 (collision energy: 14 V) respectively. Data processing of mass spectrometric analyses including ion peak selection, data transferring, peak intensity comparison and quantitation was conducted using self-programmed Microsoft Excel macros (30).

wild type cells = test: Lipid measurement by mass spectrometry (GC/MS); format: cell-based, human; conditions: wild type cells; 80 μM α-tocopherol or 40 uM δ-tocopherol for 5 days
Protocol: as §1, §2, §3

Wolman disease cells = test: Amplex-red cholesterol assay (total cholesterol), combination therapy; format: cell-based, human
Excerpt: (1) Amplex-red cholesterol assay. This biochemical assay (Invitrogen) uses cholesterol oxidase and a HRP-Amplex-re reporting system to measure the free cholesterol level in cells. With the addition of acid lipase to this assay, that hydrolyzes cholesterol ester to free cholesterol, the level of total cholesterol in cells including the cholesterol ester can be measured. This assay was used for detecting the total cholesterol level of in fibroblasts from patients with Wolman disease.

[2] = human plasma, physiological level; cited from earlier work

OC[C@H]1O[C@@H]2O[C@H]3[C@H](O)[C@@H](O)[C@@H](O[C@H]4[C@H](O)[C@@H](O)[C@@H](O[C@H]5[C@H](O)[C@@H](O)[C@@H](O[C@H]6[C@H](O)[C@@H](O)[C@@H](O[C@H]7[C@H](O)[C@@H](O)[C@@H](O[C@H]8[C@H](O)[C@@H](O)[C@@H](O[C@H]1[C@H](O)[C@H]2O)O[C@@H]8CO)O[C@@H]7CO)O[C@@H]6CO)O[C@@H]5CO)O[C@@H]4CO)O[C@@H]3CO [Beta-cyclodextrin]
cholesterol accumulation (NPC cat model): reduce cholesterol accumulation | life span (NPC cat model): increase in life span | cholesterol accumulation (NPC mouse model): reduce cholesterol accumulation | life span (NPC mouse model): increase in life span

CC(=O)N[C@@H](CS)C(=O)O [NAc, N-acetyl cysteine, reference compound]
enlarged lysosome size (NPCD fibroblasts): did not have any effect | cholesterol amount (cholesterol reduction) [1]: did not have any effect

O=C1O[C@H]([C@@H](O)CO)C(O)=C1O [vitamin C, reference compound]
enlarged lysosome size (NPCD fibroblasts): not active | cholesterol amount (cholesterol reduction) [1]: not active

Cc1c(C)c2c(c(C)c1O)CC[C@@](C)(CCC[C@H](C)CCC[C@H](C)CCCC(C)C)O2 [α-tocopherol, reference compound]
amount of cholesterol ester (NPC fibroblasts; NPCD cells): significantly reduced | sphingomyelin amount (NPC fibroblasts; NPCD cells): not significantly changed | free cholesterol level (NPC fibroblasts; NPCD fibroblasts): not statistically different | amount of cholesterol ester (wild type cells): significantly reduced | sphingomyelin amount (wild type cells): not significantly changed | cholesterol level, sole therapy (Wolman disease cells; 40 μM delta-tocopherol or 80 μM alpha-tocopherol alone): cholesterol reduction effect | cholesterol level, combination (Wolman disease cells; alpha-tocopherol 20 uM combined with 10 μM MBCD): cholesterol reduction effect | plasma concentration [2]: ~26 µM

Cc1c(O)cc2c(c1C)O[C@](C)(CCC[C@H](C)CCC[C@H](C)CCCC(C)C)CC2 [γ-tocopherol, reference compound]
EC50 ([1]; Homo sapiens, Skin fibroblast, read-out: EC50, reduction of cholesterol accumulation): 60 to 80 µM

methyl-beta-cyclodextrin [MBCD, reference compound]
cholesterol level (Wolman disease cells; MBCD at 0.3 mM alone): time dependent reduction

vitamin D [reference compound]
enlarged lysosome size (NPCD fibroblasts): not active | cholesterol amount (cholesterol reduction) [1]: not active

vitamin K [reference compound]
enlarged lysosome size (NPCD fibroblasts): not active | cholesterol amount (cholesterol reduction) [1]: not active
